According to patent US12479847B2 (DANA-FARBER CANCER INSTITUTE, INC., priority 2019, dated 2025):

Key:
Experiment in all cases: KINOMEscan (ScanMAX) kinase profiling
Type in all cases: binding
[1] = target: T1, panel of 468 kinases (Homo sapiens, UniProt Q8WTQ7); conditions: GRK7; 1 μM; read-out: % control
T1 construct: purchased KINOMEscan (ScanMAX) service
T1 sequence (Q8WTQ7 1-553): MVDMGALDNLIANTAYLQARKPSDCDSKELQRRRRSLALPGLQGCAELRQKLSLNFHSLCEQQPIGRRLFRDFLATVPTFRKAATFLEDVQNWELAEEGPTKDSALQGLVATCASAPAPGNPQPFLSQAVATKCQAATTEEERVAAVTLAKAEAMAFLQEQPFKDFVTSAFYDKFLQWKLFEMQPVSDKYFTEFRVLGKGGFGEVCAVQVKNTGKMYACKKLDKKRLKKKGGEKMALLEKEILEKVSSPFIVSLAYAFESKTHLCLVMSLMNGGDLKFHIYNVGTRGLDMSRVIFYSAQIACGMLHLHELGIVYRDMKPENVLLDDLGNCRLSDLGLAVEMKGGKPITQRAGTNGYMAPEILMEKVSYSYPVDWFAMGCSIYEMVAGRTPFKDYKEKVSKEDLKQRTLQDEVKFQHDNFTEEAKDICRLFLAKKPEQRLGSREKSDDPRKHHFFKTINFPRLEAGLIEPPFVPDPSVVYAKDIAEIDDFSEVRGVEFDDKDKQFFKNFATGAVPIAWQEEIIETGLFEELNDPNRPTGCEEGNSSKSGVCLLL

[2] = target: T2, panel of 468 kinases (Homo sapiens, UniProt Q00537); conditions: PCTK2; 1 μM; read-out: % control
T2 construct: purchased KINOMEscan (ScanMAX) service

[3] = target: T3, panel of 468 kinases (Homo sapiens, UniProt Q6ZN16); conditions: MAP3K15; 1 μM; read-out: % control
T3 construct: purchased KINOMEscan (ScanMAX) service
T3 sequence (Q6ZN16 1-1313): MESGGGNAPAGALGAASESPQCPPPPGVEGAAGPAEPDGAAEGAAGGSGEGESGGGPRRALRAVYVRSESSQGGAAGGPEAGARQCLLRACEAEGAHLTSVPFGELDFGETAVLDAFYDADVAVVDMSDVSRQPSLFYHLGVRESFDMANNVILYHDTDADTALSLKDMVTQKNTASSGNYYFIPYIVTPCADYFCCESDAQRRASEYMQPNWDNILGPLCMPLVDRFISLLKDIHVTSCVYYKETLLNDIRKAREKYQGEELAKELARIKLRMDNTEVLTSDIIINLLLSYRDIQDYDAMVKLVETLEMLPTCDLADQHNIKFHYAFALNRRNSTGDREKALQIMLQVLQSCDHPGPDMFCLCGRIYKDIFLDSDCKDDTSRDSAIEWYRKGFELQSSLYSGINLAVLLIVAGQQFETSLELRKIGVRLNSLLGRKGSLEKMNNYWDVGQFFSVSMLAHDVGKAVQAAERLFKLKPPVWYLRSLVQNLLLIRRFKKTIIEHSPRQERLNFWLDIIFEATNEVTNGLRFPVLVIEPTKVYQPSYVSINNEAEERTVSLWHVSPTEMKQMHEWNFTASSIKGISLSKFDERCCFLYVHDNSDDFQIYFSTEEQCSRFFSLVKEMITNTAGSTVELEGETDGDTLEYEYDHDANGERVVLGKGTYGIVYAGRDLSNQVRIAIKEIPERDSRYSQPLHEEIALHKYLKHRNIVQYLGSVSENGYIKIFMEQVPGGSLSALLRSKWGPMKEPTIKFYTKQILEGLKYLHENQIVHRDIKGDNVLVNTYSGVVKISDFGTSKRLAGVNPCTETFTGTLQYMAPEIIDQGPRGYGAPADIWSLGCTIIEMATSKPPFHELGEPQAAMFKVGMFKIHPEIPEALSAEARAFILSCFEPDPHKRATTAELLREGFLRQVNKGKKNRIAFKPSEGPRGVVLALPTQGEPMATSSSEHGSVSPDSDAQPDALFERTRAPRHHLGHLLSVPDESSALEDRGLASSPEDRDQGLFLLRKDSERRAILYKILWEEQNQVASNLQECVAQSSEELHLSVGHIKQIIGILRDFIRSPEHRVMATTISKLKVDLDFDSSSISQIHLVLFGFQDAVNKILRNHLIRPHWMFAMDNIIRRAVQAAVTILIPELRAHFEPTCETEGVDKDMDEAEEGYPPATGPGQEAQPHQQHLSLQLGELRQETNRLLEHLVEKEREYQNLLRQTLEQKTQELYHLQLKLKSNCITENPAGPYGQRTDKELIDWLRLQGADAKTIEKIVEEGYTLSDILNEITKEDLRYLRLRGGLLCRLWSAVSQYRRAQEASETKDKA

[4] = target: T4, panel of 468 kinases (Homo sapiens, UniProt O60285); conditions: ARKS; 1 μM; read-out: % control
T4 construct: purchased KINOMEscan (ScanMAX) service
T4 sequence (O60285 1-661): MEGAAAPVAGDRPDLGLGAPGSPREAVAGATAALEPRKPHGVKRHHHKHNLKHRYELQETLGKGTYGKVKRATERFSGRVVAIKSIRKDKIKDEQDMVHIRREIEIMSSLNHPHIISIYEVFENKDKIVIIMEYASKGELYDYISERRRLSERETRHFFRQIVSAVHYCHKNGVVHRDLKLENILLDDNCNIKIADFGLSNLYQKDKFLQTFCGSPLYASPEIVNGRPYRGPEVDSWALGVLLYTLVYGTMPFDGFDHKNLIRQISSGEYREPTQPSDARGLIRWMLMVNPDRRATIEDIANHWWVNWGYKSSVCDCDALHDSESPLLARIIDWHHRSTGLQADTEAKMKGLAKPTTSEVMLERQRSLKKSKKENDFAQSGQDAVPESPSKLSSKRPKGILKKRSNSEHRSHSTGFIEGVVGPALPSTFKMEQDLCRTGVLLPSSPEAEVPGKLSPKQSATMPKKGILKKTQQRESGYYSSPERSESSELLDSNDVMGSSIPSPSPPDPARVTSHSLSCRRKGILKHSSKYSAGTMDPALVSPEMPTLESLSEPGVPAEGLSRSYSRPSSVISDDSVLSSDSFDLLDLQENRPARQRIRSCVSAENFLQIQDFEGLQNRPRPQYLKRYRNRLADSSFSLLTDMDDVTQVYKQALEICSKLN

[5] = target: T5, panel of 468 kinases (Homo sapiens, UniProt P49841); conditions: GSK3B; 1 μM; read-out: % control
T5 construct: purchased KINOMEscan (ScanMAX) service
T5 sequence (P49841 whole entry): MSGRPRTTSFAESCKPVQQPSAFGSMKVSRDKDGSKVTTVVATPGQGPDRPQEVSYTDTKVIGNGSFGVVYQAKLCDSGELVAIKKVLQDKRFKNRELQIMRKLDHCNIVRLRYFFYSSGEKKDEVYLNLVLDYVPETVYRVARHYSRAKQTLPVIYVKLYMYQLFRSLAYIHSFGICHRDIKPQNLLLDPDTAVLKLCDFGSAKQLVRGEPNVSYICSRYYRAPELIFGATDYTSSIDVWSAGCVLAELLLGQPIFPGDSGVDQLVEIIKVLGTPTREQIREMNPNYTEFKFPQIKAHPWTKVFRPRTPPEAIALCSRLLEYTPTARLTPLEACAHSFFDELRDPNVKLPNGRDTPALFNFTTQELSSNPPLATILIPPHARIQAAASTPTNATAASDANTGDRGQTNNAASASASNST

T2 sequence (Q00537 whole entry): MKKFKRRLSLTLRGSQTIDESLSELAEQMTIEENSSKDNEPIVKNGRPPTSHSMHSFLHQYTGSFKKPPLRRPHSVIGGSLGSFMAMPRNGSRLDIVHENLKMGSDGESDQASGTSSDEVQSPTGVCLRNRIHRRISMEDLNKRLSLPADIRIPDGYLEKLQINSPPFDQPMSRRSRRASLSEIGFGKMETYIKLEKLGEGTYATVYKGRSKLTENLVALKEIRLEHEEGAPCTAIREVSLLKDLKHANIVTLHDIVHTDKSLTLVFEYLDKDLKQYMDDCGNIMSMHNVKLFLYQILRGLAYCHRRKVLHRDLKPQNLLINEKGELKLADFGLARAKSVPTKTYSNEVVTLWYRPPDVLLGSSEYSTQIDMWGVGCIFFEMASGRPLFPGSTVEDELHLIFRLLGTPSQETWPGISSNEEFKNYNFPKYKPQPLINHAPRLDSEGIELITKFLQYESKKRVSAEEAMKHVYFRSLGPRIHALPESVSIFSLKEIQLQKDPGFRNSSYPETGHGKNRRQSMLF

SMILES | remaining binding at 1 µM [1] | remaining binding at 1 µM [2] | remaining binding at 1 µM [3] | remaining binding at 1 µM [4] | remaining binding at 1 µM [5]
CNc1nc(Nc2ccc(S(=O)(=O)N3CCC(N4CCOCC4)CC3)cc2OC)nc2[nH]cc(Cl)c12 [Compound 12, 5-chloro-N2-(2-methoxy-4-((4-morpholinopiperidin-1-yl)sulfonyl)phenyl)-N4-methyl-7H-pyrrolo[2,3-d]pyrimidine-2,4-diamine] | 100% | 100% | 75% | 100% | 96%
CNc1nc(Nc2ccc(P3(=O)CCN(C4CCOCC4)CC3)cc2OC)nc2[nH]cc(Cl)c12 [Compound 77, 4-(4-((5-chloro-4-(methylamino)-7H-pyrrolo[2,3-d]pyrimidin-2-yl)amino)-3-methoxyphenyl)-1-(tetrahydro-2H-pyran-4-yl)-1,4-azaphosphinane 4-oxide] | 99% | 100% | 46% | 96% | 100%
CNc1nc(Nc2ccc(C(=O)N3CCC(N4CCOCC4)CC3)c3c2OCO3)nc2[nH]cc(Cl)c12 [Compound 75, (7-((5-chloro-4-(methylamino)-7H-pyrrolo[2,3-d]pyrimidin-2-yl)amino)benzo[d][1,3]dioxol-4-yl)(4-morpholinopiperidin-1-yl)methanone] | 100% | 100% | 39% | 23% | 97%
